# Data taken from patent EP4656630A1, “NOVEL COMPOUND AS LYSYL-TRNA SYNTHETASE 1 INHIBITOR, AND USE THEREOF” (Zymedi Co., Ltd., priority 2023, dated 2024).
# Columns and labels:
# KARS1 and 37LR = target: T1, KARS1 and 37LR (Homo sapiens, UniProt Q15046); experiment: Cell-free ELISA of KARS1 and 37LR (laminin receptor) binding; settings: 10 µM compound, 1 hour, plate coated with KARS1 (1-207aa), LRF
# T1 construct: KARS1 (1-207aa)
# Description: Next, based on the mechanism of action, a cell-free ELISA analysis was conducted to select compounds with high inhibitory activity on the binding of KARS1 and LR (laminin receptor).
# Raw 264.7 cells = experiment: LN (Laminin 421)-induced immune cell migration, Transwell; assay type: cell-based; settings: Mus musculus, RAW264.7; 3 µM compound, LN (Laminin 421 1 µg/ml), 24 hours, % inhibition compared to control group; read-out: Migration inhibitor % (3uM)
# Description: Cell migration was assessed based on the method described in the prior literature (Park, S. G. et al. Human lysyl-tRNA synthetase is secreted to trigger proinflammatory response. Proceedings of the National Academy of Sciences, 2005, 102.18: 6356-6361.). The specific experimental method is as follows. A Transwell (Corning#3421-5µm pore) was coated with gelatin (0.5mg/ml), and then Raw 264.7 cells (1 x 10^5 cells/well) were seeded in the upper chamber. Serum-free medium (Serum Free DMEM, 500 µl) containing LN (Laminin 421 1 µg/ml) was added to the lower chamber. Each compound was treated at a concentration of 3µM in the upper chamber. After 24 hours, the cells were fixed with 70% methanol for 30 minutes and stained with 50% hematoxylin for 30 minutes. Non-migrating cells on the upper side of the membrane were removed with a cotton swab, and the membrane was mounted on a slide. Migrating cells on the lower side of the membrane were observed under a high-power microscope, and the number of cells was measured from the obtained images and expressed as the inhibition rate (% inhibition) compared to the control group.
# Raw264.7 cells = experiment: KARS1-induced trans-migration assay; assay type: cell-based, mouse; settings: Mus musculus, RAW264.7; 1 µM compound; read-out: KARS1-induced Raw264.7 cell migration (% inhibition, 1uM)
# Description: C0001 inhibits the binding of KARS1 and 67LR, thereby blocking the migration of monocytes/macrophages and suppressing inflammation. Accordingly, a trans-migration assay using mouse macrophages (Raw264.7) was conducted to preliminarily screen drugs that inhibit the migration of monocytes/macrophages.
# Based on this, when KARS1 protein was directly treated externally instead of LN, the trans-migration of Raw264.7 was induced, and the cell migration inhibitory effect of the KARS1 inhibitor C0001 was confirmed. It was verified that C0001, which specifically binds to KARS1, can inhibit cell migration by binding to extracellular KARS1, in addition to the mechanism of inhibiting cell membrane migration of KARS1 induced by laminin and its binding to 67LR, thereby enabling this analysis to be used as a direct method for evaluating in vitro activity against KARS1.
# Next, preliminary candidate substances with high inhibitory activity at 1 µM were treated at concentrations of 0.1~4 µM for analysis.
# T1 sequence (Q15046 1-207): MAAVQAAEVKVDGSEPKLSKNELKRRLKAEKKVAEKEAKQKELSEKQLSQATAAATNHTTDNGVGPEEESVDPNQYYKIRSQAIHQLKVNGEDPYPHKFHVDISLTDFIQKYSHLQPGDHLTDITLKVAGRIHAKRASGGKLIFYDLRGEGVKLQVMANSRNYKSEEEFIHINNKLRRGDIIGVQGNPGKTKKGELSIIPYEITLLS
Compound,inhibition at 10 µM (KARS1 and 37LR) [%],inhibition at 3 µM (Raw 264.7 cells) [%],inhibition at 1 µM (Raw264.7 cells) [%]
"COc1ccc(CCN(Cc2ccc(-c3ccccc3)cc2)c2nc3cccnc3s2)cc1 [Compound 1, N-([1,1'-biphenyl]-4-ylmethyl)-N-(4-methoxyphenethyl)thiazolo[5,4-b]pyridin-2-amine]",-6,8.8,19.8
"COc1ccc(CCN(Cc2ccc(CCC(=O)O)cc2)c2nc3cccc(F)c3s2)cc1 [Compound 2, 3-(4-(((7-fluorobenzo[d]thiazol-2-yl)(4-methoxyphenethyl)amino)-methyl)phenyl)propanoic acid]",79.4,15.7,98.1
"CCN(CC)C(=O)C#Cc1ccc(CN(CCc2ccc(OC)cc2)c2nc3cccc(F)c3s2)cc1 [Compound 3, N,N-diethyl-3-(4-(((7-fluorobenzo[d]thiazol-2-yl)(4-methoxyphenethyl)amino)methyl)phenyl)propiolamide]",4.7,0,22.6
"CNC(=O)C#Cc1ccc(CN(CCc2ccc(OC)cc2)c2nc3cccc(F)c3s2)cc1 [Compound 4, 3-(4-(((7-fluorobenzo[d]thiazol-2-yl)(4-methoxyphenethyl)amino)-methyl)phenyl)-N-methylpropiolamide]",13.8,88,9.8
"COc1ccc(CCN(Cc2ccc(C#CC(N)=O)cc2)c2nc3cccc(F)c3s2)cc1 [Compound 5, 3-(4-(((7-fluorobenzo[d]thiazol-2-yl)(4-methoxyphenethyl)amino)-methyl)phenyl)propiolamide]",0.8,77.7,95.6
"COc1ccc(CCNc2ncc3ccn(C)c3n2)cc1 [Compound 6, N-(4-methoxyphenethyl)-7-methyl-7H-pyrrolo[2,3-d]pyrimidin-2-amine]",14.8,5.1,23.5
"COc1ccc(CCN(Cc2ccc(Br)cc2)c2ncc3ccn(C)c3n2)cc1 [Compound 7, N-(4-bromobenzyl)-N-(4-methoxyphenethyl)-7-methyl-7H-pyrrolo[2,3-d]pyrimidin-2-amine]",9.5,10.9,39.1
"COc1ccc(CCN(Cc2cccc(C#C[Si](C)(C)C)c2)c2nc3cccc(F)c3s2)cc1 [Compound 8, 7-fluoro-N-(4-methoxyphenethyl)-N-(3-((trimethylsilyl)ethynyl)-benzyl)benzo[d]thiazol-2-amine]",13.4,27,
"C#Cc1cccc(CN(CCc2ccc(OC)cc2)c2nc3cccc(F)c3s2)c1 [Compound 9, N-(3-ethynylbenzyl)-7-fluoro-N-(4-methoxyphenethyl)benzo[d]thiazol-2-amine]",8.5,0,
"COc1ccc(CCN(Cc2ccc(C#C[Si](C)(C)C)cc2)c2ncc3ccn(C)c3n2)cc1 [Compound 10, N-(4-methoxyphenethyl)-7-methyl-N-(4-((trimethylsilyl)ethynyl)-benzyl)-7H-pyrrolo[2,3-d]pyrimidin-2-amine]",9.8,0,11.7
"C#Cc1ccc(CN(CCc2ccc(OC)cc2)c2ncc3ccn(C)c3n2)cc1 [Compound 11, N-(4-ethynylbenzyl)-N-(4-methoxyphenethyl)-7-methyl-7H-pyrrolo[2,3-d]pyrimidin-2-amine]",3,12,37.8
"COc1ccc(CCN(Cc2ccc(C#CC(=O)O)cc2)c2nc3ccc(=O)[nH]c3s2)cc1 [Compound 45, 3-(4-(((4-methoxyphenethyl)(5-oxo-4,5-dihydrothiazolo[5,4-b]pyridin-2-yl)amino)methyl)phenyl)propiolic acid]",,7.8,39.8
